Data reported in patent EP0942906B1, “COMPOUNDS USEFUL FOR INHIBITION OF FARNESYL PROTEIN TRANSFERASE” (SCHERING CORPORATION, priority 1996, dated 1998).
pIC50: −log10 of the molar value. Read-outs that look alike come from different tables or passages of the source.

Tests used:
Conditions in all cases: range stated for the listed group of compounds
Human tumor cells = experiment: Soft Agar Assay (anchorage-independent growth, colony count after MTT staining); assay type: cell-based
Description: Anchorage-independent growth is a characteristic of tumorigenic cell lines. Human tumor cells are suspended in growth medium containing 0.3% agarose and an indicated concentration of a farnesyl transferase inhibitor. The solution is overlayed onto growth medium solidified with 0.6% agarose containing the same concentration of farnesyl transferase inhibitor as the top layer. After the top layer is solidified, plates are incubated for 10-16 days at 37°C under 5% CO2 to allow colony outgrowth. After incubation, the colonies are stained by overlaying the agar with a solution of MTT (3-[4,5-dimethylthiazol-2-yl]-2.5-diphenyltetrazolium bromide, Thiazolyl blue) (1 mg/mL in PBS). Colonies can be counted and the IC50's can be determined.

COS Cell = COS Cell IC50 (Cell-Based Assay, procedure of WO 95/10516)
Description: (§1) FPT IC50 (inhibition of farnesyl protein transferase, in vitro enzyme assay) and COS Cell IC50 (Cell-Based Assay) were determined following the assay procedures described in WO 95/10516, published April 20, 1995. GGPT IC50 (inhibition of geranylgeranyl protein transferase, in vitro enzyme assay), Cell Mat Assay, and anti-tumor activity (in vivo anti-tumor studies) could be determined by the assay procedures described in WO 95/10516.

[1] = target: farnesyl protein transferase (Homo sapiens, UniProt P49354+P49356); experiment: FPT IC50, inhibition of farnesyl protein transferase, in vitro enzyme assay (procedure of WO 95/10516); assay type: biochemical
Description: as §1

[2] = ras form not stated, read-out: FPT IC50
[3] = H-ras, read-out: FPT IC50 (H-ras)
[4] = k-ras, read-out: FPT IC50 (k-ras)

farnesyl protein transferase, sequence (P49356 whole entry, one chain of several): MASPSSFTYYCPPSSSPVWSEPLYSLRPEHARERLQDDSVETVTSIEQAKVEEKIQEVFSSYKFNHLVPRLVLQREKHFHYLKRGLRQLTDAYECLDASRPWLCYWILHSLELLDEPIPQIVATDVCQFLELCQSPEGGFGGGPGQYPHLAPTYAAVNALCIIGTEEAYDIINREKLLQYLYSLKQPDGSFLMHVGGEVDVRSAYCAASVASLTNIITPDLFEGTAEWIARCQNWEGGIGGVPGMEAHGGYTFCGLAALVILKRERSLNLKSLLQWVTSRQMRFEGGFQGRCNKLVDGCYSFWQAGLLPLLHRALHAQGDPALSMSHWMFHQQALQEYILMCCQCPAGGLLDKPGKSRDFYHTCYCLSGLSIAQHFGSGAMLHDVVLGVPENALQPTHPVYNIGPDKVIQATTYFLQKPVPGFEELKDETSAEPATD

N#CCC(=O)N1CCC(CC(=O)N2CCC([C@H]3c4ncc(Br)cc4CCc4cc(Cl)cc(Br)c43)CC2)CC1 [Compound 44.0-B]
pIC50 (Human tumor cells): ≤ 7.71 | pIC50 (COS Cell; read-out: Cos Cell): ≤ 8.05 | pIC50 [1, 2]: 7.74 to 9.15

CCOC(=O)c1c(C)ncn1CC(=O)N1CCC(CC(=O)N2CCC([C@H]3c4ncc(Br)cc4CCc4cc(Cl)cc(Br)c43)CC2)CC1 [Compound 53.0-B]
pIC50 (Human tumor cells): ≤ 7.71 | pIC50 (COS Cell; read-out: Cos Cell): ≤ 8.05 | pIC50 [1, 2]: 7.74 to 9.15

CCOC(=O)C[C@@H](CC(=O)N1CCC(CC(=O)N2CCC([C@H]3c4ncc(Br)cc4CCc4cc(Cl)cc(Br)c43)CC2)CC1)OC(C)=O [Compound 16.0-B]
pIC50 (Human tumor cells): ≤ 7.71 | pIC50 (COS Cell; read-out: Cos Cell): ≤ 8.05 | pIC50 [1, 2]: 7.74 to 9.15

CONC(=O)C(=O)N1CCC(CC(=O)N2CCC([C@H]3c4ncc(Br)cc4CCc4cc(Cl)cc(Br)c43)CC2)CC1 [Compound 49.0-B]
pIC50 (Human tumor cells): ≤ 7.71 | pIC50 (COS Cell; read-out: Cos Cell): ≤ 8.05 | pIC50 [1, 2]: 7.74 to 9.15

O=C(O)CCCC(=O)N1CCC(CC(=O)N2CCC([C@H]3c4ncc(Br)cc4CCc4cc(Cl)cc(Br)c43)CC2)CC1 [Compound 19.0-B]
pIC50 (Human tumor cells): ≤ 7.71 | pIC50 (COS Cell; read-out: Cos Cell): ≤ 8.05 | pIC50 [1, 2]: 7.74 to 9.15

O=C(CC1CCN(C(=O)CC2CCCO2)CC1)N1CCC([C@H]2c3ncc(Br)cc3CCc3cc(Cl)cc(Br)c32)CC1 (stereo partly drawn) [Compound 114.4-B]
pIC50 (Human tumor cells): ≤ 7.71 | pIC50 (COS Cell; read-out: Cos Cell): ≤ 8.05 | pIC50 [1, 2]: 7.74 to 9.15

O=C(C(=O)N1CCC(CC(=O)N2CCC([C@H]3c4ncc(Br)cc4CCc4cc(Cl)cc(Br)c43)CC2)CC1)c1cccs1 [Compound 81.0-B]
pIC50 (Human tumor cells): ≤ 7.71 | pIC50 (COS Cell; read-out: Cos Cell): ≤ 8.05 | pIC50 [1, 2]: 7.74 to 9.15

COC(=O)CCC(=O)N1CCC(CC(=O)N2CCC(C3c4ncc(Br)cc4CCc4cc(Cl)cc(Br)c43)CC2)CC1 (stereo not drawn) [Compound 15.2]
pIC50 (Human tumor cells): ≤ 7.71 | pIC50 (COS Cell; read-out: Cos Cell IC50): 6.15 to 8.00 | pIC50 [1, 3]: 7.50 to 8.70

O=C(CC1CCN(C(=O)Cn2cnc([N+](=O)[O-])c2)CC1)N1CCC([C@H]2c3ncc(Br)cc3CCc3cc(Cl)cc(Br)c32)CC1 [Compound 26.0-B]
pIC50 (Human tumor cells): ≤ 7.71 | pIC50 (COS Cell; read-out: Cos Cell): ≤ 8.05 | pIC50 [1, 2]: 7.74 to 9.15

O=C(CC1CCN(C(=O)Cn2cccc2)CC1)N1CCC([C@H]2c3ncc(Br)cc3CCc3cc(Cl)cc(Br)c32)CC1 [Compound 34.0-B]
pIC50 (Human tumor cells): ≤ 7.71 | pIC50 (COS Cell; read-out: Cos Cell): ≤ 8.05 | pIC50 [1, 2]: 7.74 to 9.15

COC(=O)C(=O)N1CCC(CC(=O)N2CCC([C@H]3c4ncc(Br)cc4CCc4cc(Cl)cc(Br)c43)CC2)CC1 [Compound 104.0-B]
pIC50 (Human tumor cells): ≤ 7.71 | pIC50 (COS Cell; read-out: Cos Cell): ≤ 8.05 | pIC50 [1, 3]: 7.50 to 8.70

O=C(CC1CCN(C(=O)CN2CCS(=O)(=O)CC2)CC1)N1CCC([C@H]2c3ncc(Br)cc3CCc3cc(Cl)cc(Br)c32)CC1 [Compound 6.0-B]
pIC50 (Human tumor cells): ≤ 7.71 | pIC50 (COS Cell; read-out: Cos Cell): ≤ 8.05 | pIC50 [1, 4]: 7.15 to 7.84 | pIC50 [1, 2]: 7.74 to 9.15

CC(C)(C)OC(=O)NCCCC(=O)N1CCC(CC(=O)N2CCC([C@H]3c4ncc(Br)cc4CCc4cc(Cl)cc(Br)c43)CC2)CC1 [Compound 89.0-B]
pIC50 (Human tumor cells): ≤ 7.71 | pIC50 (COS Cell; read-out: Cos Cell): ≤ 8.05 | pIC50 [1, 2]: 7.74 to 9.15

COC(=O)Cc1cn(CC(=O)N2CCC(CC(=O)N3CCC([C@H]4c5ncc(Br)cc5CCc5cc(Cl)cc(Br)c54)CC3)CC2)cn1 [Compound 56.0-B]
pIC50 (Human tumor cells): ≤ 7.71 | pIC50 (COS Cell; read-out: Cos Cell): ≤ 8.05 | pIC50 [1, 2]: 7.74 to 9.15

O=C(O)CCCCCC(=O)N1CCC(CC(=O)N2CCC([C@H]3c4ncc(Br)cc4CCc4cc(Cl)cc(Br)c43)CC2)CC1 [Compound 70.0-B]
pIC50 (Human tumor cells): ≤ 7.71 | pIC50 (COS Cell; read-out: Cos Cell): ≤ 8.05 | pIC50 [1, 2]: 7.74 to 9.15

O=C(O)CCC(=O)N1CCC(CC(=O)N2CCC([C@H]3c4ncc(Br)cc4CCc4cc(Cl)cc(Br)c43)CC2)CC1 [Compound 18.0-B]
pIC50 (Human tumor cells): ≤ 7.71 | pIC50 (COS Cell; read-out: Cos Cell): ≤ 8.05 | pIC50 [1, 3]: 7.50 to 8.70 | pIC50 [1, 4]: 7.15 to 7.84 | pIC50 [1, 2]: 7.74 to 9.15

COC(=O)c1cccn1CC(=O)N1CCC(CC(=O)N2CCC([C@H]3c4ncc(Br)cc4CCc4cc(Cl)cc(Br)c43)CC2)CC1 [Compound 35.0-B]
pIC50 (Human tumor cells): ≤ 7.71 | pIC50 (COS Cell; read-out: Cos Cell): ≤ 8.05 | pIC50 [1, 2]: 7.74 to 9.15

O=C(CC1CCN(C(=O)Cn2cncn2)CC1)N1CCC([C@H]2c3ncc(Br)cc3CCc3cc(Cl)cc(Br)c32)CC1 [Compound 57.0-B]
pIC50 (Human tumor cells): ≤ 7.71 | pIC50 (COS Cell; read-out: Cos Cell): ≤ 8.05 | pIC50 [1, 2]: 7.74 to 9.15

O=C(CC1CCOCC1)N1CCC(CC(=O)N2CCC([C@H]3c4ncc(Br)cc4CCc4cc(Cl)cc(Br)c43)CC2)CC1 [Compound 85.0-B]
pIC50 (Human tumor cells): ≤ 7.71 | pIC50 (COS Cell; read-out: Cos Cell): ≤ 8.05 | pIC50 [1, 2]: 7.74 to 9.15
